From article PMC12603070, “A high-throughput screening approach to discover potential colorectal cancer chemotherapeutics: repurposing drugs to identify novel disruptors of 14-3-3 proteins” (Cell Death & Disease, 2025)
Like-named read-outs stand apart in the source and are kept apart here.

How the values were obtained:
[1] = system: HT-29 and Caco-2 CRC cells; test: Cell death in CRC cells, statements covering both HT-29 and Caco-2 (screen at 20 µM, dose-response); type: cell-based, human; settings: dose-response 2.5-20 µM in HT-29 and Caco-2
Method: Cells were plated at a density of 20,000 cells/well into 96-well plates (PerkinElmer; #6055302) and incubated overnight at 37 °C before the addition of the drugs. One hour prior to imaging, Hoechst 33342 (Invitrogen, #H3570) and propidium iodide (Invitrogen; #P3566) were added to the wells to achieve final concentrations of 50 ng/ml and 0.5 μg/ml, respectively. To measure apoptosis, AlexaFluor 488-conjugated Annexin V (ThermoFisher, Massachusetts, USA; #A13201) was also added at a dilution of 1:400 from the commercial stock. A high-content imaging system (PerkinElmer; Operetta CLS), was used to quantify cell death and apoptosis by calculating the number of propidium iodide-positive cells relative to Hoechst-positive cells, and the number of Annexin V-positive cells relative to Hoechst-positive cells, respectively. To assess caspase-dependent apoptosis, cells were pre-treated for 30 min with the caspase inhibitor Z-VAD-FMK (BD Biosciences, New Jersey, USA; #550377; 20 μM) or the negative control Z-FA-FMK (BD Biosciences; #550411; 20 μM) prior to the incubation of drugs.

HT-29 cells = test: Hoechst/propidium iodide cell death assay in HT-29; type: cell-based, human; settings: for %Cell death HT-29: time not given; for cytotoxicity at 20 µM: Homo sapiens
Text: A high-content imaging system (PerkinElmer; Operetta CLS), was used to quantify cell death and apoptosis by calculating the number of propidium iodide-positive cells relative to Hoechst-positive cells, and the number of Annexin V-positive cells relative to Hoechst-positive cells, respectively.

[2] = system: BAD translocation to mitochondria in Caco-2 and HT-29 cells; test: Confocal imaging of BAD-mCitrine translocation to mitochondria in CRC cells; type: cell-based, human; settings: 2 µM, 24 h post-treatment
Method: To visualize BAD translocation, 35 mm glass-bottom dishes (ibidi, Gräfelfing, Germany; #81158) were coated with 0.1 mg/mL Poly-D-lysine hydrobromide for 2 h at 37 °C. After coating, dishes were washed twice with sterilized water. Subsequently, cells transfected with BAD-mCitrine were seeded at a density of 20,000 cells per dish and incubated for 24 h to allow for cell attachment. For live-cell imaging, cells were then incubated for 1 h with the mitochondrial membrane potential dye tetramethylrhodamine ethyl ester (TMRE, Invitrogen; #T668) at a final concentration of 100 nM, according to the manufacturer’s instructions. Images were acquired on a Zeiss (Oberkochen, Germany) LSM-900 Airyscan inverted confocal microscope equipped with an environmental incubation system, laser lines including 488 and 561 nm, and an oil immersion 60×/1.40 Plan achromat objective. The signal from the YFP fluorophore (ex. 488 nm, det. 525–542 nm) and the TMRE (ex. 561 nm, det. 600–700 nm) were collected in super-resolution mode. The cell viability dye, DRAQ (BioLegend, California, USA; #424101), was added to the medium at a 1:1000 dilution from the commercial stock and incubated at room temperature for 30 min prior to live-cell imaging. To quantify the colocalization of BAD-mCitrine and the mitochondria labeled with the TMRE, the JACoP plugin in ImageJ was employed. A correlation analysis was performed based on Pearson’s coefficient between pixel-gray values for the two channels.

His-14-3-3ζ = target: T1, His-14-3-3ζ (Homo sapiens, UniProt P63104); test: Surface plasmon resonance (SPR) on immobilized His-14-3-3ζ; type: binding; settings: for kd: SPR dissociation rate; for BI ([Signal (RU)]): SPR fit parameter, per curve; for kon: pH 7.8, SPR association rate, read-out: ka
T1 construct: made in house; host or cells: Escherichia coli BL21 LOBSTR-RIL
T1 sequence (P63104 1-245): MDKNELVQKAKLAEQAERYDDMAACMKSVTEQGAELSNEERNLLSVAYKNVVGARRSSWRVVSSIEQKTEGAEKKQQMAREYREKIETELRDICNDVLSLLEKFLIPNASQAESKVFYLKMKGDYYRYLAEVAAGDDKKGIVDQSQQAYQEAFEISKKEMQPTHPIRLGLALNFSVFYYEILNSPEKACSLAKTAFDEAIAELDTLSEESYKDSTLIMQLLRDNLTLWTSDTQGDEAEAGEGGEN
Method: The published protocol of Higuchi & Ottmann as followed with modifications to express 14-3-3ζ [44]. Escherichia coli BL21 LOBSTR-RIL cells were transformed with a plasmid encoding His-14-3-3ζ. The transformed cells were grown in TB medium containing appropriate antibiotic at 37 °C with shaking at 200 rpm until the culture reached an optical density of 0.6–0.8 at 600 nm (OD600). Protein expression was induced by the addition of isopropyl β-D-1-thiogalactopyranoside to a final concentration of 0.4 mM. Subsequently, the temperature was decreased to 16 °C and the culture incubated for another 16 h. Cells were harvested by centrifugation at 7000 × g for 20 min at 21 °C. The supernatant was discarded, and the cell pellet containing 14-3-3ζ was mixed and resuspended in lysis buffer (50 mM Tris, pH 7.80), 500 mM NaCl, 5 mM imidazole, 5% glycerol, 1 mM PMSF & 1 mM Benzamidine. Cells were lysed by sonication on ice using a probe sonicator (20 cycles of 10 s on, 20 s off, amplitude 70%). The lysate was centrifuged at 30,000 × g for 30 min at 4 °C to remove cell debris. The supernatant was collected for further purification. The 14-3-3ζ was isolated from the lysate by affinity chromatography (Ni-NTA beads, Qiagen). For further purification, the eluant was subjected to size exclusion chromatography using a Superdex 75 gel filtration column (HiLoad 16/600, GE Healthcare), pre-equilibrated with SEC buffer (20 mM Tris, pH 7.5, 150 mM NaCl, 1 mM TCEP). The protein solution was concentrated by ultrafiltration, flash frozen, and stored at −80 °C.
The general protocol for evaluating 14-3-3ζ was adapted from Hartman et al. and modified for our instrument and sensors. The SPR experiments were performed using a Open surface plasmon resonance instrument (OpenSPR^TM, Nicoya, Kitchener-Waterloo, Canada), and high sensitivity-nitrilotriacetic acid (HS-NTA) sensors. The sensor chip surface was first activated with 40 mM of NiCl2 at a flow rate of 20 μL/min using 20 mM HEPES pH 7.8, 150 mM NaCl and 1% DMSO as the running buffer. All running buffers were filtered and degassed prior to use. 100 μg/mL His-14-3-3ζ protein in 20 mM HEPES pH 7.8, 150 mM NaCl and 1% DMSO was injected at 8 μL/min flow rate for 800 s contact time and immobilized until the instrument registered 2900–3500 RU (activation and protein immobalization spectrograms are provided as Supplementary Fig. 10). Drugs were dissolved in DMSO and were diluted with 20 mM HEPES pH 7.8, 150 mM NaCl (final DMSO concentration of 1% v/v) and were injected at a flow rate of 50 μL/min. Single-cycle kinetics were applied for KD evaluation and binding affinity using TraceDrawer v.1.8.1 (Ridgeview Instruments AB).

[3] = HT-29, 24 h, 20 µM, 24 h, read-out: Percentage of cell death % 24h HT-29
[4] = HT-29, 48 h, HT-29, 48h, 20 μM, read-out: Percentage of cell death % 48h, HT-29
[5] = SPR fit, value repeated per curve
[6] = SPR, immobilized His-14-3-3ζ, single-cycle kinetics, 1% DMSO

| SMILES | Lowest concentration that significantly induced cell death [1] [µM] | %Cell death HT-29 (HT-29 cells; HT-29) [%] | cytotoxicity at 20 µM (HT-29 cells; [3]) [%] | cytotoxicity at 20 µM (HT-29 cells; [4]) [%] | Mitochondrial translocation of BAD [2] | Bmax ([Signal (RU)]) (His-14-3-3ζ; SPR curve at 0.0009 mM ligand) [RU] | Bmax ([Signal (RU)]) (His-14-3-3ζ; SPR curve at 0.005 mM ligand) [RU] | Bmax ([Signal (RU)]) (His-14-3-3ζ; SPR curve at 0.007 mM ligand) [RU] | Bmax ([Signal (RU)]) (His-14-3-3ζ; SPR curve at 0.01 mM ligand) [RU] | kd (His-14-3-3ζ; value repeated per curve) [s⁻¹] | BI ([Signal (RU)]) (His-14-3-3ζ) [RU] | Kd (His-14-3-3ζ; [5]) [nM] | Kd (His-14-3-3ζ; [6]) [nM] | kon (His-14-3-3ζ; value repeated per curve) [M⁻¹ s⁻¹] | Bmax ([Signal (RU)]) (His-14-3-3ζ; SPR curve at 0.02 mM ligand) [RU] | Bmax ([Signal (RU)]) (His-14-3-3ζ; SPR curve at 0.003 mM ligand) [RU] | Kd (His-14-3-3ζ; SPR, immobilized 14-3-3ζ) [nM] |
| --- | --- | --- | --- | --- | --- | --- | --- | --- | --- | --- | --- | --- | --- | --- | --- | --- | --- |
| OC1(c2ccc(Cl)c(C(F)(F)F)c2)CCN(CCCC(c2ccc(F)cc2)c2ccc(F)cc2)CC1 [Penfluridol] | 5 | 92.2 | 77.5 | 92.2 | Mitochondrial translocation of BAD was observed | 99.25 | 72.64 | 80.65 | 100.4 | 0.00974 | 0.1 | 1350 | 1350 | 7240 | – | – | – |
| CCCCCCCCc1ccc(CCC(N)(CO)CO)cc1 [Fingolimod (FTY720), Fingolimod] | – | 69.1 | 13.5 | 69.1 | – | 2.87 | 227.4 | – | – | 0.00856 | 0.1 | 10600 | 10600 | 807 | 342.32 | – | – |
| O=C(NC1CCN(CCCCC2(C(=O)NCC(F)(F)F)c3ccccc3-c3ccccc32)CC1)c1ccccc1-c1ccc(C(F)(F)F)cc1 [Lomitapide] | 5 | 72.9 | 29.5 | 72.9 | Mitochondrial translocation of BAD was observed | 55.11 | – | – | 270.8 | 0.0109 | 0.1 | 858 | 890 | 12700 | 311.25 | 159.43 | 900 |
| CC(C)(C)c1ccc(C(O)CCCN2CCC(C(O)(c3ccccc3)c3ccccc3)CC2)cc1 (stereo not drawn) [Terfenadine] | 5 | 89.6 | 81.9 | 89.6 | Mitochondrial translocation of BAD was observed | 166.72 | 144.99 | 177.73 | 179.00 | 0.0185 | 0.1 | 2960 | 2960 | 6260 | – | – | – |
